This assay has as its system clinically latent microorganisms. The assay can be described thus: Screening for ability to kill clinically latent microorganisms (method of WO2000028074). The assay is classed as cell-based. To be noted: observed by the Applicant. From the text:
International Patent Application, Publication Number WO2000028074 describes a method of screening compounds to determine their ability to kill clinically latent microorganisms. […] This observation has necessitated the development of novel antimicrobials which may be used to kill clinically latent microorganisms.
By way of example, WO2000028074 describes a suitable method of screening compounds to determine their ability to kill clinically latent microorganisms. A typical method may include the following steps: • (1) growing a bacterial culture to stationery phase; • (2) treating the stationery phase culture with one or more antimicrobial agents at a concentration and or time sufficient to kill growing bacteria, thereby selecting a phenotypically resistant sub-population; • (3) incubating a sample of the phenotypically resistant subpopulation with one or more test compounds or agents; and • (4) assessing any antimicrobial effects against the phenotypically resistant subpopulation.

For the molecule `CC(=O)NC[C@H]1CN(c2ccc(N3CCOCC3)c(F)c2)C(=O)O1` [linezolid], the “activity against clinically latent microorganisms” value was “little or no activity”.

Turning to `CC[C@H]1OC(=O)[C@H](C)[C@@H](O[C@H]2C[C@@](C)(OC)[C@@H](O)[C@H](C)O2)[C@H](C)[C@@H](O[C@@H]2O[C@H](C)C[C@H](N(C)C)[C@H]2O)[C@](C)(O)C[C@@H](C)CN(C)[C@H](C)[C@@H](O)[C@]1(C)O` [azithromycin], the “activity against clinically latent microorganisms” value is recorded as “little or no activity”.

These data come from patent US9789101B2, “Methods and compositions for treating microbial infection using pyrroloquinone” (HELPERBY THERAPEUTICS LIMITED, priority 2010, dated 2017).
